Where “and” joins values, the source holds several entries; their conditions need not be identical. Equal values may be shown once. Entries after “also recorded” stand apart in the source; their conditions may differ.
Experiments:
[1] = molecular target: BdGUS (Bifidobacterium dentium GUS) (Bifidobacterium dentium, UniProt D2Q7B1); test: biochemical; parameters: GUS activity (hydrolysis rate of MUG) / 1/v: unit not given here
[2] = molecular target: T1, GUS activity in live E. coli cells (Escherichia coli, UniProt P05804); test: GUS activity in live E. coli cells; type: cell-based; settings: E. coli cells (OD600 = 1.89) treated for 30 min, then GUS activity measured
T1 construct: endogenous in cells
Protocol: To examine if inhibitors 2–4 could inhibit GUS activity in vivo, E. coli cells (OD600 = 1.89) were treated with each of 2–4 for 30 min, after which GUS activity was measured. […]; 3, 18.6 nM; and 4, 3.69 nM (Supplementary Fig. 9a). […]. […] Additionally, to evaluate cell viability, E. coli cultures were treated with ampicillin (positive control), DMSO, or inhibitors 2–4 (100 μM) for 6 h.
Supplementary Figure 9 Inhibitors 2–4 sho w in hi biti on ag ai n st G US acti vity in l i ve E. co li cell s. (a) GUS activity was measured in live E. coli. Af t e r E. coli were incubated with DMSO or an inhibitor ( 2–4), GUS activity was measured using 4-methylumbelliferyl-β-glucuronide as the substrate. The release of fluorescent 4-methylumbelliferone was detected at 445 nm (excitation, 345 nm). Compared with the negative c ont rol (DMSO ), […]
[…]. (b) Colony formation assay. None of the inhibitors affected bacterial growth. As a negative control, E. coli cells were incubated with ampicillin (100 μg/mL). Results are expressed as the mean of triplicate samples ± SEM.
(1 picture or pasted object on this page, not shown here)

[3] = molecular target: LgGUS (Lactobacillus gasseri GUS) (Lactobacillus gasseri, UniProt Q9AHJ8); test: GUS inhibition assay, hydrolysis of 4-methylumbelliferyl-β-glucuronide, LgGUS; type: biochemical; parameters: GUS activity (hydrolysis rate of MUG) / 1/v: unit not given here
EcGUS = EcGUS (Escherichia coli, UniProt P05804); test: Isothermal titration calorimetry, EcGUS; type: binding; settings: EcGUS
BdGUS = BdGUS (Bifidobacterium dentium, UniProt D2Q7B1); test: biochemical; type: binding; settings: BdGUS; Tris buffer (250 mM NaCl, 20 mM Tris, pH 8.0); 298 K
[4] = molecular target: EcGUS (Escherichia coli GUS) (Escherichia coli, UniProt P05804); test: biochemical
[5] = [Inhibitor 3] = 0.25 μM, [MUG] 0.375 mM
[6] = [Inhibitor 3] = 0.25 μM, [MUG] 0.75 mM
[7] = [Inhibitor 3] = 0.25 μM, [MUG] 1.5 mM
[8] = [Inhibitor 3] = 0.25 μM, [MUG] 3 mM
[9] = [Inhibitor 3] = 0.5 μM, [MUG] 0.375 mM
[10] = [Inhibitor 3] = 0.5 μM, [MUG] 0.75 mM
[11] = [Inhibitor 3] = 0.5 μM, [MUG] 1.5 mM
[12] = [Inhibitor 3] = 0.5 μM, [MUG] 3 mM
[13] = [Inhibitor 3] = 1 μM, [MUG] 0.375 mM
[14] = [Inhibitor 3] = 1 μM, [MUG] 0.75 mM
[15] = [Inhibitor 3] = 1 μM, [MUG] 1.5 mM
[16] = [Inhibitor 3] = 1 μM, [MUG] 3 mM
[17] = [Inhibitor 3] = 2 μM, [MUG] 0.375 mM
[18] = [Inhibitor 3] = 2 μM, [MUG] 0.75 mM
[19] = [Inhibitor 3] = 2 μM, [MUG] 1.5 mM
[20] = [Inhibitor 3] = 2 μM, [MUG] 3 mM
[21] = [Inhibitor 3] = 0.5 μM, [MUG] 0.0375 mM
[22] = [Inhibitor 3] = 0.5 μM, [MUG] 0.075 mM
[23] = [Inhibitor 3] = 0.5 μM, [MUG] 0.15 mM
[24] = [Inhibitor 3] = 0.5 μM, [MUG] 0.3 mM
[25] = [Inhibitor 3] = 1 μM, [MUG] 0.0375 mM
[26] = [Inhibitor 3] = 1 μM, [MUG] 0.075 mM
[27] = [Inhibitor 3] = 1 μM, [MUG] 0.15 mM
[28] = [Inhibitor 3] = 1 μM, [MUG] 0.3 mM
[29] = [Inhibitor 3] = 2 μM, [MUG] 0.0375 mM
[30] = [Inhibitor 3] = 2 μM, [MUG] 0.075 mM
[31] = [Inhibitor 3] = 2 μM, [MUG] 0.15 mM
[32] = [Inhibitor 3] = 2 μM, [MUG] 0.3 mM
[33] = [Inhibitor 3] = 4 μM, [MUG] 0.0375 mM
[34] = [Inhibitor 3] = 4 μM, [MUG] 0.075 mM
[35] = [Inhibitor 3] = 4 μM, [MUG] 0.15 mM
[36] = [Inhibitor 3] = 4 μM, [MUG] 0.3 mM
[37] = phosphate buffer (250 mM NaCl, 20 mM KH2PO4, 100 mM Na2HPO4, pH 8.0), 298 K

Chain of EcGUS (P05804 whole entry): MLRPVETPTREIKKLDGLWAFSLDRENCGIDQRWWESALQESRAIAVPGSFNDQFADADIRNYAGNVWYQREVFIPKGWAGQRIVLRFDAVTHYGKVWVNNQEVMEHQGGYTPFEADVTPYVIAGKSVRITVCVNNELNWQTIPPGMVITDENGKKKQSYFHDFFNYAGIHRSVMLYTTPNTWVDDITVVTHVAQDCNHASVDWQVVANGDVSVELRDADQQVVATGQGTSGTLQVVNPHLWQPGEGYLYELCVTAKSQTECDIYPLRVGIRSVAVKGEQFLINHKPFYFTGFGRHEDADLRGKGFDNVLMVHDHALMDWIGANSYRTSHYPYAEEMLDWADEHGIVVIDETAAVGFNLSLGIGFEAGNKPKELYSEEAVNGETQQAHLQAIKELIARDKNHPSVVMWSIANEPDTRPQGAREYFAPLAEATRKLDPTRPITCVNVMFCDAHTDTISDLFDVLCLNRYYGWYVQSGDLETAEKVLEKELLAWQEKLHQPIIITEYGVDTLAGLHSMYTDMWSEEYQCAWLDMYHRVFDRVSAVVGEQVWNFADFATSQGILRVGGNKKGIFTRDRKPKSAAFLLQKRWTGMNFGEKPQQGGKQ
Chain of LgGUS (Lactobacillus gasseri GUS) (Q9AHJ8 1-598): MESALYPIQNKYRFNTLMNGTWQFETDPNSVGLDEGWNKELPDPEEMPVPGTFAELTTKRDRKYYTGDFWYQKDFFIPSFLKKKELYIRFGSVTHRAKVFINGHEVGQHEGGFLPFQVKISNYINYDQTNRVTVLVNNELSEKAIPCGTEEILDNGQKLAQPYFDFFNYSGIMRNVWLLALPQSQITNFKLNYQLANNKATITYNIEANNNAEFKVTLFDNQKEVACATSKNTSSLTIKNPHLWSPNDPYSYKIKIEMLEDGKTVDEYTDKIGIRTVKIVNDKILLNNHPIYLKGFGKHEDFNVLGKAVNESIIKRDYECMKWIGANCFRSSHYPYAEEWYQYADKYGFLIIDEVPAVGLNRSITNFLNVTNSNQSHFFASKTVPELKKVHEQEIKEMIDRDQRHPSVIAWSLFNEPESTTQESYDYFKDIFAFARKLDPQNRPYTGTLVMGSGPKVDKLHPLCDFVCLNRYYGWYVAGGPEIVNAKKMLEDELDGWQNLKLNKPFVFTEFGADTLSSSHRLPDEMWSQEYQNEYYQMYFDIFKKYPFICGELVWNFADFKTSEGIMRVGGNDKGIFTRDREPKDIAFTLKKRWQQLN
Chain of BdGUS (Bifidobacterium dentium GUS) (D2Q7B1 1-668): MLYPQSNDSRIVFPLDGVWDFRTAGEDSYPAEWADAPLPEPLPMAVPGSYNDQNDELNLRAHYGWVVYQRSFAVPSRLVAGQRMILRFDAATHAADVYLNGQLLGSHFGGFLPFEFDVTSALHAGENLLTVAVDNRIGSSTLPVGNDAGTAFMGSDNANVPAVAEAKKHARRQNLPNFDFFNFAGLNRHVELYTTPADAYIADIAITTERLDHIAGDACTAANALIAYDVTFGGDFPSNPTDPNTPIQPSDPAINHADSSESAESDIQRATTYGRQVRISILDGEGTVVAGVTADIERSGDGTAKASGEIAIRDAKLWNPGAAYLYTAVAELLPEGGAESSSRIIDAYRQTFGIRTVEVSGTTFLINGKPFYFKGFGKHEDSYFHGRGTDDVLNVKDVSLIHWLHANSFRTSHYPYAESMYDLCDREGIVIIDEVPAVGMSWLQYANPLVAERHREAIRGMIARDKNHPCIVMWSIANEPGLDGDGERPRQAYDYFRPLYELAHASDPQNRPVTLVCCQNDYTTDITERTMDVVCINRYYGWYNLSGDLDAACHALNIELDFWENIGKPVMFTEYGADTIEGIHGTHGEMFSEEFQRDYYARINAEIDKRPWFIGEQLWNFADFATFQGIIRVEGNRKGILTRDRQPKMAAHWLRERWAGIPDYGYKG
Chain of EcGUS (Escherichia coli GUS) (P05804 whole entry): as the sequence (P05804 whole entry) above
T1 sequence (P05804 whole entry): as above
Chain of BdGUS (D2Q7B1 entry or part of it): as the sequence (D2Q7B1 1-668) above

With `CCCCCC[C@@H]1NC[C@@H](O)[C@H](O)[C@H]1C(=O)O` [Inhibitor 3, C6-hexyl UIFG] the Ki ([1]; BdGUS, 50 mM HEPES pH 7.5, 37 °C) was 0.86 ± 0.2 µM, the 1/v [1, 5] was 0.8098 and 0.8436 and 0.8112 and the “GUS activity (hydrolysis rate of MUG)” value [1, 5] was 0.2757 and 0.2647 and 0.2753. The 1/v [1, 6] was 0.4851 and 0.501 and 0.4979, the “GUS activity (hydrolysis rate of MUG)” value [1, 6] was 0.4603 and 0.4457 and 0.4485 and the 1/v [1, 7] was 0.3326 and 0.3553 and 0.3441. For the same compound, the “GUS activity (hydrolysis rate of MUG)” value [1, 7] was 0.6714 and 0.6286 and 0.649, the 1/v [1, 8] was 0.2934 and 0.2936 and 0.2832 and the “GUS activity (hydrolysis rate of MUG)” value [1, 8] was 0.761 and 0.7606 and 0.7885. The 1/v [1, 9] was 1.013 and 1.039 and 0.9379, the “GUS activity (hydrolysis rate of MUG)” value [1, 9] was 0.2203 and 0.2148 and 0.2381 and the 1/v [1, 10] was 0.5713 and 0.5847 and 0.5765. For the same compound, the “GUS activity (hydrolysis rate of MUG)” value [1, 10] was 0.3909 and 0.3819 and 0.3873, the 1/v [1, 11] was 0.386 and 0.3868 and 0.3898 and the “GUS activity (hydrolysis rate of MUG)” value [1, 11] was 0.5784 and 0.5773 and 0.5728. The 1/v [1, 12] was 0.2997 and 0.3073 and 0.3039, the “GUS activity (hydrolysis rate of MUG)” value [1, 12] was 0.7451 and 0.7267 and 0.7347 and the 1/v [1, 13] was 1.333 and 1.373 and 1.236. The “GUS activity (hydrolysis rate of MUG)” value [1, 13] was 0.1676 and 0.1627 and 0.1806, the 1/v [1, 14] was 0.7658 and 0.7424 and 0.7331 and the “GUS activity (hydrolysis rate of MUG)” value [1, 14] was 0.2916 and 0.3008 and 0.3046. For the same compound, the 1/v [1, 15] was 0.4723 and 0.4867 and 0.4608, the “GUS activity (hydrolysis rate of MUG)” value [1, 15] was 0.4727 and 0.4588 and 0.4846 and the 1/v [1, 16] was 0.3528 and 0.337 and 0.3348. For the same compound, the “GUS activity (hydrolysis rate of MUG)” value [1, 16] was 0.6328 and 0.6626 and 0.667, the 1/v [1, 17] was 1.957 and 1.888 and 1.908 and the “GUS activity (hydrolysis rate of MUG)” value [1, 17] was 0.1141 and 0.1183 and 0.117. For the same compound, the 1/v [1, 18] was 1.031 and 0.9985 and 1.0212, the “GUS activity (hydrolysis rate of MUG)” value [1, 18] was 0.2167 and 0.2236 and 0.2187 and the 1/v [1, 19] was 0.6082 and 0.615 and 0.6155. For the same compound, the “GUS activity (hydrolysis rate of MUG)” value [1, 19] was 0.3672 and 0.3631 and 0.3628, the 1/v [1, 20] was 0.4308 and 0.4219 and 0.4288 and the “GUS activity (hydrolysis rate of MUG)” value [1, 20] was 0.5183 and 0.5293 and 0.5208. For the same compound, the IC50 [2] was 0.0186 µM, the Ki ([3]; LgGUS, 50 mM sodium acetate pH 4.5, 37 °C) was 0.86 ± 0.18 µM and the 1/v [3, 21] was 0.401 and 0.3673 and 0.39. The “GUS activity (hydrolysis rate of MUG)” value [3, 21] was 3104.19 and 3385.21 and 3190.6, the 1/v [3, 22] was 0.256 and 0.2525 and 0.2536 and the “GUS activity (hydrolysis rate of MUG)” value [3, 22] was 4839.61 and 4906.13 and 4884.95. The 1/v [3, 23] was 0.1953 and 0.1691 and 0.1949, the “GUS activity (hydrolysis rate of MUG)” value [3, 23] was 6330.06 and 7304.48 and 6344.76 and the 1/v [3, 24] was 0.1452 and 0.1349 and 0.1522. The “GUS activity (hydrolysis rate of MUG)” value [3, 24] was 8498.3 and 9149.25 and 8113.44, the 1/v [3, 25] was 0.5803 and 0.4953 and 0.5757 and the “GUS activity (hydrolysis rate of MUG)” value [3, 25] was 2157.49 and 2520.77 and 2174.43. For the same compound, the 1/v [3, 26] was 0.3424 and 0.3184 and 0.351, the “GUS activity (hydrolysis rate of MUG)” value [3, 26] was 3628.61 and 3898.42 and 3540.08 and the 1/v [3, 27] was 0.2292 and 0.221 and 0.234. The “GUS activity (hydrolysis rate of MUG)” value [3, 27] was 5401.09 and 5599.95 and 5290.95, the 1/v [3, 28] was 0.17 and 0.1709 and 0.1804 and the “GUS activity (hydrolysis rate of MUG)” value [3, 28] was 7266.77 and 7229.36 and 6851.15. The 1/v [3, 29] was 0.7678 and 0.7232 and 0.846, the “GUS activity (hydrolysis rate of MUG)” value [3, 29] was 1640.4 and 1739.08 and 1492.59 and the 1/v [3, 30] was 0.3881 and 0.4343 and 0.4681. For the same compound, the “GUS activity (hydrolysis rate of MUG)” value [3, 30] was 3205.84 and 2869.39 and 2664.86, the 1/v [3, 31] was 0.2765 and 0.2621 and 0.3029 and the “GUS activity (hydrolysis rate of MUG)” value [3, 31] was 4483.64 and 4728.12 and 4096.06. The 1/v [3, 32] was 0.1941 and 0.1876 and 0.2109, the “GUS activity (hydrolysis rate of MUG)” value [3, 32] was 6369.22 and 6587.98 and 5864.23 and the 1/v [3, 33] was 1.38 and 1.418 and 1.362. The “GUS activity (hydrolysis rate of MUG)” value [3, 33] was 930.888 and 906.847 and 942.511, the 1/v [3, 34] was 0.7054 and 0.7651 and 0.7316 and the “GUS activity (hydrolysis rate of MUG)” value [3, 34] was 1782.13 and 1646.05 and 1719.56. For the same compound, the 1/v [3, 35] was 0.4164 and 0.4204 and 0.422, the “GUS activity (hydrolysis rate of MUG)” value [3, 35] was 2991.08 and 2963 and 2951.69 and the 1/v [3, 36] was 0.2731 and 0.2793 (2×). The “GUS activity (hydrolysis rate of MUG)” value [3, 36] was 4539.61 and 4438.44 and 4439.48, the ΔH (EcGUS; Tris buffer (250 mM NaCl, 20 mM Tris, pH 8.0), 298 K) was “Essentially no enthalpy change was evident; also recorded: close to zero” and the “ΔΔH relative to 2 (ΔΔH2–3, ΔΔH2–4)” value (EcGUS; phosphate buffer) was “+0.04 kcal mol^−1”. The “–TΔΔS relative to 2 (–TΔΔS2–3, –TΔΔS2–4)” value (EcGUS; phosphate buffer) was “–1.32 kcal mol^−1”, the Kd (EcGUS; [37]) was 0.03 ± 0.01 µM and the ΔG (EcGUS; [37]) was “–10.24 ± 0.18 kcal/mol”. The ΔH (EcGUS; [37]) was “–3.95 ± 0.06 kcal/mol”, the “—TΔS” value (EcGUS; [37]) was “–6.29 ± 0.13 kcal/mol” and the ΔH (BdGUS) was “Essentially no enthalpy change was evident”. It also gave a Ki ([4]; 50 mM HEPES pH 7.5, 37 °C) of 0.003 ± 0.0006 µM and a Ki ([4]; source data of Table 1, from plot of apparent Km against [inhibitor] (μM)) of 0.00316 µM.

From PMC7933434, “Entropy-driven binding of gut bacterial β-glucuronidase inhibitors ameliorates irinotecan-induced toxicity” (Communications Biology, 2021)
